According to ChEMBL document CHEMBL1148183, “Anti-inflammatory activity of two flavonoids from Tanacetum microphyllum” (1993):
Activity calls are given as the source filed them. The rule behind the calls is not given here.

Key:
Mus musculus [1] = test: Antiinflammatory activity against carrageenan-induced paw edema in Swiss mouse at 25 mg/kg, po administered 1 hr before carrageenan challenge measured after 3 hrs; assay type: functional
Mus musculus [2] = test: Antiinflammatory activity against carrageenan-induced paw edema in Swiss mouse at 25 mg/kg, po administered 1 hr before carrageenan challenge measured after 5 hrs; assay type: functional
Mus musculus [3] = test: Antiinflammatory activity against carrageenan-induced paw edema in Swiss mouse at 80 mg/kg, po administered 1 hr before carrageenan challenge measured after 5 hrs; assay type: functional
Mus musculus [4] = test: Antiinflammatory activity against carrageenan-induced paw edema in Swiss mouse at 80 mg/kg, po administered 1 hr before carrageenan challenge measured after 3 hrs; assay type: functional
Mus musculus [5] = test: Antiinflammatory activity against carrageenan-induced paw edema in Swiss mouse at 10 mg/kg, po administered 1 hr before carrageenan challenge measured after 5 hrs; assay type: functional
Mus musculus [6] = test: Antiinflammatory activity against carrageenan-induced paw edema in Swiss mouse at 10 mg/kg, po administered 1 hr before carrageenan challenge measured after 3 hrs; assay type: functional
Mus musculus [7] = test: Antiinflammatory activity against carrageenan-induced paw edema in po dosed Swiss mouse administered 1 hr before carrageenan challenge measured after 7 hrs; assay type: functional, organism-based

Molecule `COc1ccc(-c2oc3cc(O)c(OC)c(O)c3c(=O)c2OC)cc1O` [CENTAUREIDIN] has an inhibition in vivo at 25 mg/kg (Mus musculus [1]) of 67.6% and an inhibition in vivo at 25 mg/kg (Mus musculus [2]) of 55.5%.
`CCCCC1C(=O)N(c2ccccc2)N(c2ccccc2)C1=O` [PHENYLBUTAZONE] showed an inhibition in vivo at 80 mg/kg (Mus musculus [3]) of 47.2% and an inhibition in vivo at 80 mg/kg (Mus musculus [4]) of 51.4%.
With `COC(=O)c1cc(O)c2c(=O)c(O)c(-c3ccc(OC)c(O)c3)oc2c1` the inhibition in vivo at 10 mg/kg (Mus musculus [5]) was 52.7%, the inhibition in vivo at 10 mg/kg (Mus musculus [6]) was 64.9% and the Activity (Mus musculus [7]) was “Active”.
